{"source": "PubChem BioAssay (NCI)", "assay_in_all_cases": "growth of human tumour cells (NCI), 48 h", "key": {"KM12 colon": {"tested_on": "KM12 colon"}, "MDA-MB-231 breast": {"tested_on": "MDA-MB-231 breast"}, "OVCAR-4 ovarian": {"tested_on": "OVCAR-4 ovarian"}, "COLO 205 colon": {"tested_on": "COLO 205 colon"}, "RXF 393 renal": {"tested_on": "RXF 393 renal"}, "SF-295 CNS": {"tested_on": "SF-295 CNS"}, "SK-OV-3 ovarian": {"tested_on": "SK-OV-3 ovarian"}, "K-562 leukemia": {"tested_on": "K-562 leukemia"}, "PC-3 prostate": {"tested_on": "PC-3 prostate"}, "SK-MEL-5 melanoma": {"tested_on": "SK-MEL-5 melanoma"}, "NCI-H226 lung": {"tested_on": "NCI-H226 lung"}, "HL-60(TB) leukemia": {"tested_on": "HL-60(TB) leukemia"}, "HCT-116 colon": {"tested_on": "HCT-116 colon"}, "MALME-3M melanoma": {"tested_on": "MALME-3M melanoma"}, "TK-10 renal": {"tested_on": "TK-10 renal"}, "SW-620 colon": {"tested_on": "SW-620 colon"}, "SK-MEL-28 melanoma": {"tested_on": "SK-MEL-28 melanoma"}, "UACC-62 melanoma": {"tested_on": "UACC-62 melanoma"}, "HOP-62 NSCLC": {"tested_on": "HOP-62 NSCLC"}, "UO-31 renal": {"tested_on": "UO-31 renal"}, "OVCAR-3 ovarian": {"tested_on": "OVCAR-3 ovarian"}, "A498 renal": {"tested_on": "A498 renal"}, "HS 578T breast": {"tested_on": "HS 578T breast"}, "SNB-75 CNS": {"tested_on": "SNB-75 CNS"}, "MDA-MB-435": {"tested_on": "MDA-MB-435"}, "RPMI-8226 leukemia": {"tested_on": "RPMI-8226 leukemia"}, "CCRF-CEM leukemia": {"tested_on": "CCRF-CEM leukemia"}, "SF-539 CNS": {"tested_on": "SF-539 CNS"}, "SF-268 CNS": {"tested_on": "SF-268 CNS"}}, "note": "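96-well plates; 48 h exposure; 5 concentrations. Endpoints by linear interpolation between flanking doses. Not reached: highest tested concentration assigned. Abbreviation: GI50, concentration required for 50% inhibition of growth. Definition used: TGI = concentration required for complete inhibition of growth.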", "data": [{"compound": "FC(F)c1ncc(-c2ccc(C(F)(F)F)cc2)c(NC2CCCCCC2)n1", "values": [{"measurement": "GI50", "setting": "KM12 colon", "result": "> 10", "unit": "µM"}, {"measurement": "TGI", "setting": "KM12 colon", "result": "> 10", "unit": "µM"}, {"measurement": "GI50", "setting": "MDA-MB-231 breast", "result": "> 10", "unit": "µM"}, {"measurement": "TGI", "setting": "MDA-MB-231 breast", "result": "> 10", "unit": "µM"}, {"measurement": "GI50", "setting": "OVCAR-4 ovarian", "result": "> 10", "unit": "µM"}, {"measurement": "TGI", "setting": "OVCAR-4 ovarian", "result": "> 10", "unit": "µM"}, {"measurement": "GI50", "setting": "COLO 205 colon", "result": "> 10", "unit": "µM"}, {"measurement": "TGI", "setting": "COLO 205 colon", "result": "> 10", "unit": "µM"}, {"measurement": "GI50", "setting": "RXF 393 renal", "result": "> 10", "unit": "µM"}, {"measurement": "TGI", "setting": "RXF 393 renal", "result": "> 10", "unit": "µM"}, {"measurement": "GI50", "setting": "SF-295 CNS", "result": "> 10", "unit": "µM"}, {"measurement": "TGI", "setting": "SF-295 CNS", "result": "> 10", "unit": "µM"}, {"measurement": "GI50", "setting": "SK-OV-3 ovarian", "result": "> 10", "unit": "µM"}, {"measurement": "TGI", "setting": "SK-OV-3 ovarian", "result": "> 10", "unit": "µM"}, {"measurement": "GI50", "setting": "K-562 leukemia", "result": "> 10", "unit": "µM"}, {"measurement": "TGI", "setting": "K-562 leukemia", "result": "> 10", "unit": "µM"}, {"measurement": "GI50", "setting": "PC-3 prostate", "result": "> 10", "unit": "µM"}, {"measurement": "TGI", "setting": "PC-3 prostate", "result": "> 10", "unit": "µM"}, {"measurement": "GI50", "setting": "SK-MEL-5 melanoma", "result": "> 10", "unit": "µM"}, {"measurement": "TGI", "setting": "SK-MEL-5 melanoma", "result": "> 10", "unit": "µM"}, {"measurement": "GI50", "setting": "NCI-H226 lung", "result": "> 10", "unit": "µM"}, {"measurement": "TGI", "setting": "NCI-H226 lung", "result": "> 10", "unit": "µM"}, {"measurement": "GI50", "setting": "HL-60(TB) leukemia", "result": "> 10", "unit": "µM"}, {"measurement": "TGI", "setting": "HL-60(TB) leukemia", "result": "> 10", "unit": "µM"}, {"measurement": "GI50", "setting": "HCT-116 colon", "result": "> 10", "unit": "µM"}, {"measurement": "TGI", "setting": "HCT-116 colon", "result": "> 10", "unit": "µM"}, {"measurement": "GI50", "setting": "MALME-3M melanoma", "result": "> 10", "unit": "µM"}, {"measurement": "TGI", "setting": "MALME-3M melanoma", "result": "> 10", "unit": "µM"}, {"measurement": "GI50", "setting": "TK-10 renal", "result": "> 10", "unit": "µM"}, {"measurement": "TGI", "setting": "TK-10 renal", "result": "> 10", "unit": "µM"}, {"measurement": "GI50", "setting": "SW-620 colon", "result": "> 10", "unit": "µM"}, {"measurement": "TGI", "setting": "SW-620 colon", "result": "> 10", "unit": "µM"}, {"measurement": "GI50", "setting": "SK-MEL-28 melanoma", "result": "> 10", "unit": "µM"}, {"measurement": "TGI", "setting": "SK-MEL-28 melanoma", "result": "> 10", "unit": "µM"}, {"measurement": "GI50", "setting": "UACC-62 melanoma", "result": "> 10", "unit": "µM"}, {"measurement": "TGI", "setting": "UACC-62 melanoma", "result": "> 10", "unit": "µM"}, {"measurement": "GI50", "setting": "HOP-62 NSCLC", "result": "> 10", "unit": "µM"}, {"measurement": "TGI", "setting": "HOP-62 NSCLC", "result": "> 10", "unit": "µM"}, {"measurement": "GI50", "setting": "UO-31 renal", "result": "> 10", "unit": "µM"}, {"measurement": "TGI", "setting": "UO-31 renal", "result": "> 10", "unit": "µM"}, {"measurement": "GI50", "setting": "OVCAR-3 ovarian", "result": "> 10", "unit": "µM"}, {"measurement": "TGI", "setting": "OVCAR-3 ovarian", "result": "> 10", "unit": "µM"}, {"measurement": "GI50", "setting": "A498 renal", "result": "> 10", "unit": "µM"}, {"measurement": "TGI", "setting": "A498 renal", "result": "> 10", "unit": "µM"}, {"measurement": "GI50", "setting": "HS 578T breast", "result": "> 10", "unit": "µM"}, {"measurement": "TGI", "setting": "HS 578T breast", "result": "> 10", "unit": "µM"}, {"measurement": "GI50", "setting": "SNB-75 CNS", "result": "> 10", "unit": "µM"}, {"measurement": "TGI", "setting": "SNB-75 CNS", "result": "> 10", "unit": "µM"}, {"measurement": "GI50", "setting": "MDA-MB-435", "result": "> 10", "unit": "µM"}, {"measurement": "TGI", "setting": "MDA-MB-435", "result": "> 10", "unit": "µM"}, {"measurement": "GI50", "setting": "RPMI-8226 leukemia", "result": "> 10", "unit": "µM"}, {"measurement": "TGI", "setting": "RPMI-8226 leukemia", "result": "> 10", "unit": "µM"}, {"measurement": "GI50", "setting": "CCRF-CEM leukemia", "result": "> 10", "unit": "µM"}, {"measurement": "TGI", "setting": "CCRF-CEM leukemia", "result": "> 10", "unit": "µM"}, {"measurement": "GI50", "setting": "SF-539 CNS", "result": "> 10", "unit": "µM"}, {"measurement": "TGI", "setting": "SF-539 CNS", "result": "> 10", "unit": "µM"}, {"measurement": "GI50", "setting": "SF-268 CNS", "result": "> 10", "unit": "µM"}]}]}
